Values joined by “and” are separate entries in the source; they are usually repeats but may differ in a detail not shown here. Equal values may be shown once.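 All cell lines were grown in 96-well plates and treated with compound for 48 hours. The concentration for 50% growth inhibition is given as GI50. TGI: total growth inhibition.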
Tests used:
Assay in all cases: growth of human tumour cells (NCI), 48 h
MDA-N = tested on: MDA-N
UO-31 renal = tested on: UO-31 renal
UACC-62 melanoma = tested on: UACC-62 melanoma
KM12 colon = tested on: KM12 colon
COLO 205 colon = tested on: COLO 205 colon
SNB-75 CNS = tested on: SNB-75 CNS
OVCAR-8 ovarian = tested on: OVCAR-8 ovarian
MDA-MB-435 = tested on: MDA-MB-435
SR leukemia = tested on: SR leukemia
SF-539 CNS = tested on: SF-539 CNS

SMILES | TGI (MDA-N) | TGI (UO-31 renal) | TGI (UACC-62 melanoma) | TGI (KM12 colon) | TGI (COLO 205 colon) | TGI (SNB-75 CNS) | TGI (OVCAR-8 ovarian) | TGI (MDA-MB-435) [µM] | TGI (SR leukemia) [µM] | TGI (SF-539 CNS) | GI50 (MDA-N) [µM] | GI50 (UO-31 renal) [µM] | GI50 (SNB-75 CNS) [µM] | GI50 (SR leukemia) | GI50 (SF-539 CNS) [µM]
COC1CCC(OC2CC(C3(C)CCC4(CC(O)C(C)C(C(C)/C=C(\C)C(=O)C(C)CC(C)C(=O)O)O4)O3)OC3(OC(C4OC(O)(CO)C(C)CC4C)CC3C)C2C)OC1C (configuration not stated) | 0.549 µM | 5.91 µM | 0.298 µM | 1.31 µM | 0.175 µM | 0.568 µM | 1.87 µM | 0.564 | < 0.0134 | 1.17 µM |  |  |  |  | 
O=S1(=O)c2ccccc2N2CCCc3cc(Cl)cc1c32 | > 100 µM | > 100 µM | > 100 µM | > 100 µM | > 100 µM | 29.9 µM | > 100 µM | > 100 | > 100 | > 100 µM |  |  |  |  | 
O=C1CC(O)c2c(Cl)sc(Cl)c21 (configuration not stated) | 44.2 µM | 22.8 µM | 31.5 µM | > 22.7 µM | 14.6 µM | 29.5 µM | 14.2 µM | > 47.7 | 20.7 | 22.9 µM |  |  |  |  | 
CC(=O)Nc1ccc(Nc2nc(=O)[nH]c(=O)[nH]2)cc1 | > 100 µM | > 100 µM | > 100 µM | > 100 µM | > 100 µM | > 100 µM | > 100 µM | > 100 | > 100 | > 100 µM |  |  |  |  | 
C=C(Br)CN(C#N)CC(=C)Br | > 100 µM | > 100 µM | > 100 µM | > 100 µM | > 100 µM | > 100 µM | > 100 µM | > 100 | > 100 | > 100 µM |  |  |  |  | 
COc1ccc(CN=CN/C(C#N)=C(\N)C#N)cc1OC | > 100 µM | > 100 µM | > 100 µM | > 100 µM | > 100 µM | > 100 µM | > 100 µM | > 100 | > 100 | > 100 µM |  |  |  |  | 
COc1ccc2c(c1)CC[C@@H]1[C@@H]2CC[C@]2(C)/C(=N/OCCN3CCCCC3)CC[C@@H]12 | 5.9 µM | 10.7 µM | 3.68 µM | 13.2 µM | 3.18 µM | 18.2 µM | 23.1 µM | 16.9 | 6.29 | 7.64 µM |  |  |  |  | 
COC(=O)CC1C2CC3C(C2=O)C13 (configuration not stated) | > 100 µM | > 100 µM | > 100 µM | > 100 µM | > 100 µM | > 100 µM | > 100 µM | > 100 | > 100 | > 100 µM |  |  |  |  | 
COc1cccc(/C=C/C2=NN(c3cccc(S(=O)(=O)O)c3)C3(C2)SCC(=O)N3c2nc3ccccc3s2)c1 (configuration not stated) | > 100 µM | > 100 µM | > 100 µM | > 100 µM | > 100 µM | > 100 µM | > 100 µM | 66.6 | 62.9 | 37.4 µM |  |  |  |  | 
CC1(C)N=C(N)N=C(N)N1c1cccc(CSc2ccccc2)c1 | > 100 µM | > 100 µM | > 100 µM | > 100 µM | 29.1 µM | 43.8 µM | > 100 µM | > 100 | 14.2 | > 100 µM |  |  |  |  | 
CCN(CC)C(=O)CCCCCCCCC1CO1 (configuration not stated) | > 100 µM | > 100 µM | > 100 µM | > 100 µM | > 100 µM | > 100 µM | > 100 µM | > 100 | > 100 | > 100 µM |  |  |  |  | 
COc1ccc(-c2cc(-c3ccc(Nc4ccnc5cc(Cl)ccc45)cc3)nc(N)c2C#N)c2ccccc12 | > 100 µM | > 100 µM | > 100 µM | > 100 µM | > 100 µM | > 100 µM | > 100 µM | > 100 | > 100 | > 100 µM |  |  |  |  | 
Cc1nn(-c2ccccc2)c(C)c1/C=N/NC(=O)c1sc(=S)n(-c2ccccc2)c1N | > 100 µM | > 100 µM | > 100 µM | > 100 µM | 3.55 µM | 3.98 µM | > 100 µM | > 100 | > 100 | 25.6 µM |  |  |  |  | 
COc1ccc(-c2cn3c(n2)sc2cc(C)ccc23)cc1 | 58.4 µM | > 100 µM | 41.9 µM | > 100 µM | 19.6 µM | 37.3 µM | 47.2 µM | 63.2 | > 100 | 33.7 µM |  |  |  |  | 
COC1C(O)=C2C(=O)OC(C)(O)/C=C/C=C\C=C/C=C/C(c3ccccc3)NC(=O)/C=C/C=C/C=C/C=C/C2(C)C1O (configuration not stated) | 0.141 µM and 0.17 µM | 0.0846 µM and 0.175 µM | 0.258 µM | 0.117 µM and 0.148 µM | 0.0166 µM | 0.131 µM and 0.0786 µM | 0.0241 µM and 0.146 µM | 0.142 |  | 0.112 µM and 0.165 µM | 0.0329 | 0.0252 | 0.0145 | 0.0053 µM and 0.0269 µM | 0.0307
CCCCCCCCOCC1S(=O)(=O)OCCOS1(=O)=O | > 100 µM | > 100 µM | > 100 µM |  | > 100 µM | > 100 µM | > 100 µM | > 100 | > 100 | > 100 µM |  |  |  |  | 
COc1cccc(C2c3cc4c(cc3OC(N3CCOCC3)C2C)OCO4)c1O (configuration not stated) | 4.58 µM | 54.3 µM | 40.2 µM | 46.9 µM | 22.7 µM | > 100 µM | 60.1 µM | 6.57 | 30.2 | 9.66 µM |  |  |  |  | 
CCCCCc1c(CCCC)c(=O)[nH]c2cc(CNCC(OC)OC)ccc12 | 24 µM | 26.4 µM | 12.2 µM | 26.4 µM | 6.24 µM | 29.3 µM | 32 µM | 24 | 17.3 | 28.4 µM |  |  |  |  | 

SMILES | TGI (MDA-N) | TGI (UO-31 renal) | TGI (UACC-62 melanoma) | TGI (KM12 colon) | TGI (COLO 205 colon) | TGI (SNB-75 CNS) | TGI (OVCAR-8 ovarian) | TGI (MDA-MB-435) [µM] | TGI (SR leukemia) [µM] | TGI (SF-539 CNS) | GI50 (MDA-N) [µM] | GI50 (UO-31 renal) [µM] | GI50 (SNB-75 CNS) [µM] | GI50 (SR leukemia) | GI50 (SF-539 CNS) [µM]
NC1CCC(c2cc3ccccc3s2)(N2CCCCC2)CC1 (configuration not stated) | 3.2 µM | 5.94 µM | 6.25 µM | 3.78 µM | 3.19 µM | 25.2 µM | 3.67 µM | 2.63 | 3.38 | 4.59 µM |  |  |  |  | 
Cn1c(N/N=C/c2ccc(Cl)cc2)nc(-c2ccc(Cl)cc2)c(C#N)c1=O | > 100 µM | 33 µM | 48.4 µM | 57.6 µM | > 100 µM | 73.2 µM | 44.6 µM | > 100 | > 100 | 45 µM |  |  |  |  | 
Cc1nc2ccccc2n1CCc1nc2ccccc2s1 | > 100 µM |  | > 100 µM | > 100 µM | > 100 µM | > 100 µM | > 100 µM | > 100 | > 100 | > 100 µM |  |  |  |  | 
CN(C)CCCOC(=O)C(O)(Cc1ccccc1)C1CC1 (configuration not stated) | > 100 µM |  | > 100 µM | > 100 µM | > 100 µM | > 100 µM | > 100 µM | > 100 | > 100 | > 100 µM |  |  |  |  | 
COC(=O)/C=C1/OC(c2ccccc2)=C(Cl)C1=O | 43 µM | 49.2 µM | 38.8 µM | 45.6 µM | 30.1 µM | 48.5 µM | 48.7 µM | 39.5 | 17.9 | 47.1 µM |  |  |  |  | 
Cc1nc2c(Br)cc(Br)cc2c(=O)n1-c1ccccc1N | > 100 µM | 83.8 µM | > 100 µM | > 100 µM | 44 µM | 87.3 µM | > 100 µM | > 100 | > 100 | > 100 µM |  |  |  |  | 
CN(C)Cc1cc(N=Nc2ccc(Cl)c(Cl)c2)ccc1O | 23.5 µM | 11.9 µM | 19.4 µM | 16.5 µM | 8.26 µM | 20.3 µM | 25.5 µM | 23.9 | 28.6 | 38.5 µM |  |  |  |  | 
CCn1c2c(c3c(C(=O)OC)c(O)ccc31)C(=O)c1ccccc1C2=O | 29.9 µM | 27.3 µM |  | 34.6 µM | 33 µM | 39.9 µM | 30.7 µM | 32.4 | 46.6 | 36 µM |  |  |  |  | 
Cc1ccc2[nH]c(=O)c(-c3cnc(=O)[nH]n3)c(O)c2c1 | > 100 µM | > 100 µM | > 100 µM | > 100 µM | > 100 µM | > 100 µM | > 100 µM | > 100 | > 100 | > 100 µM |  |  |  |  | 
CC1CC[C@]2(C(=O)O)CCC3(C)C(=C2[C@H]1C)C=CC1[C@@]2(C)CC[C@H](O)C(C)(C)C2CC[C@]13C (some centres not stated) | > 100 µM |  | > 100 µM | > 100 µM | > 100 µM | 73.1 µM | > 100 µM | > 100 | 66.1 | 50.9 µM |  |  |  |  | 
c1ccc(N=NNNc2ccc(-c3nc4ccccc4[nH]3)cc2)cc1 | > 100 µM | > 100 µM |  | > 100 µM | > 100 µM | 88.7 µM | > 100 µM | > 100 | > 100 | > 100 µM |  |  |  |  | 
COc1cc2[nH]c(-c3ccccc3)cc(=O)c2cc1OC | 6.44 µM | > 100 µM | > 89 µM | > 74.9 µM | > 33.3 µM | > 87.1 µM | > 89.4 µM | 12.2 | > 48.3 | 60.5 µM |  |  |  |  | 
O=c1[nH]cnc2c1ncn2[C@H]1CO[C@@H](CO)[C@@H]1O | > 100 µM | > 100 µM | > 100 µM | > 100 µM | > 100 µM | > 100 µM |  | > 100 | > 100 | > 100 µM |  |  |  |  | 
CC(=O)Oc1ccc2c(c1)CC[C@@H]1C2[C@@H](O[N+](=O)[O-])C[C@@]2(C)C1CC[C@@H]2O (some centres not stated) | 27.9 µM | > 100 µM | > 100 µM | > 100 µM | > 88.7 µM | > 85.2 µM | > 86.7 µM | 56.2 | > 88.1 | 72.6 µM |  |  |  |  | 
Cc1c2cc[n+](C)cc2c(C)c2c1[nH]c1ccccc12 | 19.6 µM | > 93.4 µM and 68.7 µM | 22.5 µM and 27.4 µM | 12.1 µM | 4.57 µM and 3.37 µM | 0.755 µM and 0.779 µM | 27.4 µM and 18.1 µM | > 100 | > 100 | 2.85 µM and 2.93 µM |  |  |  |  | 
Brc1ccc2c(c1)C1=C(CO2)Cc2ccccc2O1 | 27 µM | 30.6 µM | 32.2 µM | 37.2 µM | 31.5 µM | 43 µM | 47.6 µM | 45.1 | > 100 | 36.3 µM |  |  |  |  | 
O=[N+]([O-])C(=C(NCc1ccccc1)NCc1ccccc1)C(Cl)=C(Cl)Cl | 74.7 µM | > 100 µM | 98.7 µM | 47.7 µM | 36.1 µM | 43.5 µM | > 100 µM | 46.7 | 57.8 | > 100 µM |  |  |  |  | 
